Patent US7214659B2, “Reduction of the electrocardiographic QT interval” (Creative Peptides Sweden AB, priority 2000, dated 2007)

Key:
patients with IDDM = experiment: QTc interval during 3 h C-peptide infusion, randomised double blind study (Example 3); format: in vivo, human; conditions: infused for 3 hours; NaCl placebo; FIG. 4
Method: Twelve patients were investigated twice in a randomised double blind study where C-peptide or a NaCl placebo were infused for 3 hours. The same procedure as described in Example 1 was followed.

[1] = Plasma C-peptide and blood glucose levels during 3 h i.v. C-peptide infusion (Example 1); format: in vivo; conditions: both sexes, human, iv, during the C-peptide infusion, 6 pico mole per kg per minute i.v. for 180 minutes, 0.11±0.02 nmol/l before the study
Source text: In this study 12 IDDM patients (six male and six female) with autonomic neuropathy participated in two different sessions in a randomized, double-blind study (one patient attended one time only). Their mean age was 40 and mean duration of diabetes was 21 years. In eight patients the fasting plasma C-peptide levels were below the detection limit (<0.10 nmol/l), the remaining four varied between 0.13 and 0.25 nmol/l. Eleven patients had decreased heart rate variability during deep breathing as evidence of autonomic neuropathy. On each occasion they received insulin i.v. for 9–12 hours before the study and blood glucose levels were tested every 1–2 hours during the night. The insulin infusion was adjusted to achieve euglycaemia (5–6 mmol/l). The patients were then given either saline or C-peptide i.v. for 180 minutes. 6 pico mole per kg per minute was administered.

IDDM patients = experiment: QTc interval after 3 months of s.c. C-peptide, randomised cross over study (Example 2); format: in vivo, human; conditions: 6 patients with prolonged QTc interval at the outset (>420 ms), 600 nmol per 24 h s.c. in 3 doses
Method: In a further study (different results from which were published in Diabetic Medicine, Vol. 17 (2000) p. 181–189, Johannson, Bo-Lennart et al.) 21 IDDM patients were monitored for 6 months according to a randomised cross over regimen wherein C-peptide was administered for 3 months and a placebo.
Further details of the study can be found in the above referenced paper in Diabetic Medicine but in summary, biosynthetic human C-peptide (Eli Lilly Co.) or a placebo comprising just the C-peptide solvent was injected sub-cutaneously 3 times per day. The total 24 h dose of C-peptide was 600 nmol (225 nmol 30 mins before breakfast, 150 nmol before dinner and 225 nmol at bedtime).
ECGs were recorded at the start of the programme and after 3 and then 6 months of the study. These recordings were then used to measure the QTc interval as described in Example 1.

[2] = test system: IDDM patients with autonomic neuropathy; experiment: QTc interval during 3 h i.v. C-peptide infusion, randomized double-blind study (Example 1); format: in vivo, human; conditions: during three hours of C-peptide i.v., 6 pico mole per kg per minute; basal QTc 0.429±0.004s; decreased significantly, p<0.05
Method: The QTc interval will vary from patient to patient but can generally be considered prolonged when it exceeds 420 ms in men and 430 ms in women. QTc is the corrected (for heart rate influence) QT interval. It is calculated according to Bazett's formula (QTc=QT/√{square root over (R)}R). QT and RR are conveniently measured using a ruler on an ECG tracing; the QT interval is measured from the beginning of the QRS complex to the end of the crossing of the isoelectric line of the T wave, see the stylised representation in FIG. 1. Any reduction in the interval can be beneficial to the patient, preferably the interval will be reduced by at least 3 ms, more preferably treatment will reduce the QTc interval by at least 5 ms, particularly preferably at least 8 ms even at least 10 ms. […]
Before and during the three hour session a complete 12 lead electrocardiogram was recorded to evaluate heart rate variability during deep breathing. […] The […] (one patient could not take part in a second session and one patient's ECG tracing was not possible to evaluate) were analyzed blindly by two persons. The RR and QT interval were measured with a ruler. […] Five intervals from the precordial leads and five intervals from the extremity leads were measured on each occasion and a mean was calculated. […]

level at time molar [1]: 1.73 ± 0.04 nM
Structure (SMILES): CC(C)C[C@H](NC(=O)[C@H](C)NC(=O)[C@H](CC(C)C)NC(=O)[C@@H]1CCCN1C(=O)[C@H](CCC(N)=O)NC(=O)[C@H](CC(C)C)NC(=O)[C@H](CO)NC(=O)CNC(=O)[C@H](C)NC(=O)CNC(=O)[C@@H]1CCCN1C(=O)CNC(=O)CNC(=O)CNC(=O)[C@H](CC(C)C)NC(=O)[C@H](CCC(=O)O)NC(=O)[C@@H](NC(=O)[C@H](CCC(N)=O)NC(=O)CNC(=O)[C@@H](NC(=O)[C@H](CCC(N)=O)NC(=O)[C@H](CC(C)C)NC(=O)[C@H](CC(=O)O)NC(=O)[C@H](CCC(=O)O)NC(=O)[C@H](C)NC(=O)[C@@H](N)CCC(=O)O)C(C)C)C(C)C)C(=O)N[C@@H](CCC(=O)O)C(=O)NCC(=O)N[C@@H](CO)C(=O)N[C@@H](CC(C)C)C(=O)N[C@@H](CCC(N)=O)C(=O)O [C-peptide]
QTc interval during C-peptide treatment compared to placebo (patients with IDDM): decrease in QTc interval
QTc interval, C-peptide phase compared to placebo phase (IDDM patients): clear shortening of the QTc interval
mean QTc interval [2]: 0.422 ± 0.006 s
